From PMC7413254 (Nature Communications, 2020)
Read-outs that look alike come from different tables or passages of the source. Where no end group is shown, it is not given here.

Columns and labels:
Type in all cases: cell-based
[1] = molecular target: PfCRT^3D7 (Plasmodium falciparum, UniProt Q8IBZ9); experiment: cell-based; settings: for [3H]CQ transport, PfCRT3D7 (% PfCRT3D7 control): solute 45 mM injected (estimated intracellular)
Outline: (§1)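 Transport measured in Xenopus oocytes expressing the transporters, 1.5 h at 27.5 °C in ND96 pH 5.5 unless noted. For trans-stimulation, VF-6 injected in 25 nL ND96 at pH 5.0–7.0 or Na^+-free (choline) buffer; intracellular levels based on ~400 nL oocyte volume. Ten oocytes per treatment, ≥4 experiments.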

[2] = molecular target: T1, PfCRT^Ecu1110 (Plasmodium falciparum, UniProt Q9N623, A220S/I356L/K76T/N326D); experiment: cell-based; settings: PfCRTEcu1110 oocytes, normalised to oocyte type control
Outline: as §1

[3] = molecular target: T2, PfNT1 (Plasmodium falciparum, UniProt Q8IDM6); experiment: cell-based; settings: trans-stimulation, solute 45 mM injected (estimated intracellular)
T2 construct: expressed in transfected cells; host or cells: Xenopus laevis oocytes (stage V-VI), cRNA-injected
Outline: as §1

[4] = molecular target: T3, PfCRT^Dd2 (Plasmodium falciparum, UniProt Q9N623, A220S/I356T/K76T/M74I/N326S/N75E/Q271E/R371I); experiment: cell-based
Outline: as §1

[5] = molecular target: T1, PfCRT^Ecu1110; experiment: [3H]CQ uptake into Xenopus oocytes, cis-inhibition by unlabelled solute; settings: for PfCRT-mediated [3H]CQ transport, cis-inhibition (% PfCRTEcu1110 control): PfCRTEcu1110 oocytes, background [3H]CQ accumulation subtracted, normalised to oocyte type control
Outline: (§2)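 Washed oocytes (ten per treatment) were exposed to label in pH 5.5 ND96 for 1.5 h at 27.5 °C. Buffer was then removed, cells rinsed in ice-cold ND96, lysed in SDS and counted.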

[6] = molecular target: T3, PfCRT^Dd2; experiment: as above; settings: for PfCRT-mediated [3H]CQ transport, cis-inhibition (% PfCRTDd2 control): PfCRTDd2 oocytes, background [3H]CQ accumulation subtracted, normalised to oocyte type control
Outline: as §2

[7] = trans-stimulation, Experiment 1
[8] = trans-stimulation, Experiment 2
[9] = trans-stimulation, Experiment 3
[10] = trans-stimulation, Experiment 4
[11] = read-out: PfCRT-mediated [3H]CQ transport, cis-inhibition (% PfCRTEcu1110 control)
[12] = read-out: [3H]CQ transport (% PfCRTEcu1110 control), cis-inhibition, PfCRTEcu1110, SEM
[13] = read-out: PfCRT-mediated [3H]CQ transport, cis-inhibition (% PfCRTDd2 control)

T1 sequence (Q9N623 whole entry A220S/I356L/K76T/N326D): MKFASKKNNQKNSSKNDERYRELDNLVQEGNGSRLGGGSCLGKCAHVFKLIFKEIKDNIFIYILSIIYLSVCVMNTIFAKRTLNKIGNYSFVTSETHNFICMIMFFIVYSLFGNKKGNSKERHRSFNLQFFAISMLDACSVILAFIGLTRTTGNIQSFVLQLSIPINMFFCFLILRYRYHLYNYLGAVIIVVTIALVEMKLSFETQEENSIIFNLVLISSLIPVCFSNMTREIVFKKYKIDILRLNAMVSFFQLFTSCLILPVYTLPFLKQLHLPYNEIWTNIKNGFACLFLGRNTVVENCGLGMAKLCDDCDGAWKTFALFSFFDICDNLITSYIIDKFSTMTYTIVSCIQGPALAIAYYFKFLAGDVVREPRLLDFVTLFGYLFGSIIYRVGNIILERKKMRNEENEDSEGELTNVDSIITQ
PfCRT^3D7, sequence (Q8IBZ9 59-398): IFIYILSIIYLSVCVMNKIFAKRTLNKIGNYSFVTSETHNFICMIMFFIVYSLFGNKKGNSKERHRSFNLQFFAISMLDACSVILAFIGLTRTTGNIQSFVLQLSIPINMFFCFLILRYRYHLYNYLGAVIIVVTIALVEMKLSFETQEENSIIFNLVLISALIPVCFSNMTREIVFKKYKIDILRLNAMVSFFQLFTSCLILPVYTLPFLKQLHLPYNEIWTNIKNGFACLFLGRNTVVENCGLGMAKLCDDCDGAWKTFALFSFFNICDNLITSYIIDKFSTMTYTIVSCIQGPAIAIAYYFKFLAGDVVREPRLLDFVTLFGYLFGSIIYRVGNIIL
T2 sequence (Q8IDM6 whole entry): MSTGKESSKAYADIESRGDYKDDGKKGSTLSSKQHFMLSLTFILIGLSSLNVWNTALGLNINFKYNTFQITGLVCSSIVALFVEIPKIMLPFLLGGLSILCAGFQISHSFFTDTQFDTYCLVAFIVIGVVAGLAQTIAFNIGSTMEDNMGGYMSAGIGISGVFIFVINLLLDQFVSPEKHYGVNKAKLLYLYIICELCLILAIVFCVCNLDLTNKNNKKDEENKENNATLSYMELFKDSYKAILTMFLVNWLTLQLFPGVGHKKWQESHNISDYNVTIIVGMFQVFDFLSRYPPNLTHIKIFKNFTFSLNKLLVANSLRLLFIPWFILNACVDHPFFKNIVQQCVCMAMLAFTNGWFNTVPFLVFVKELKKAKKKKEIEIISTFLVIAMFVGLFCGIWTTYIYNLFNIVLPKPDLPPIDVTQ
T3 sequence (Q9N623 whole entry A220S/I356T/K76T/M74I/N326S/N75E/Q271E/R371I): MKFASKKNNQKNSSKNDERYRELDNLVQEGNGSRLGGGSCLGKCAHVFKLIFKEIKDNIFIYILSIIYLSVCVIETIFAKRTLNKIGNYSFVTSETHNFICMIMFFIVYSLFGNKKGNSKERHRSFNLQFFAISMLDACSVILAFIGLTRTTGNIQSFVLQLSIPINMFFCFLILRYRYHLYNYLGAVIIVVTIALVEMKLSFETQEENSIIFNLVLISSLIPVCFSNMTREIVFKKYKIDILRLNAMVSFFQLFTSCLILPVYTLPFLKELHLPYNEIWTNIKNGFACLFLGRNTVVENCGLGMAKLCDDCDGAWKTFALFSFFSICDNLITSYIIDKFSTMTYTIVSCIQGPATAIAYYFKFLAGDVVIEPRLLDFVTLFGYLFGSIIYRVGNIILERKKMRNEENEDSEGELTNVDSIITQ

DLHAHKLR [DR-8]
PfCRT-mediated [3H]CQ transport, trans-stimulation (% PfCRT3D7 control) ([1]; [test solute]i = 5 mM (intracellular), PfCRT3D7 oocytes, normalised to oocyte type control): 130 ± 5.2 % PfCRT3D7 control
PfCRT-mediated [3H]CQ transport, trans-stimulation (% PfCRT3D7 control) ([1]; [test solute]i = 45 mM (intracellular; 30 mM for some solutes due to solubility), PfCRT3D7 oocytes, normalised to oocyte type control): 181 ± 5.2 % PfCRT3D7 control
[3H]CQ transport, PfCRT3D7 (% PfCRT3D7 control) [1, 7]: 184.56 % PfCRT3D7 control
[3H]CQ transport, PfCRT3D7 (% PfCRT3D7 control) [1, 8]: 199.32 % PfCRT3D7 control
[3H]CQ transport, PfCRT3D7 (% PfCRT3D7 control) [1, 9]: 173.32 % PfCRT3D7 control
[3H]CQ transport, PfCRT3D7 (% PfCRT3D7 control) [1, 10]: 194.32 % PfCRT3D7 control
PfCRT-mediated [3H]CQ transport, trans-stimulation (% PfCRTEcu1110 control) ([2]; [test solute]i = 5 mM (intracellular)): 130 ± 3.3 % PfCRTEcu1110 control
PfCRT-mediated [3H]CQ transport, trans-stimulation (% PfCRTEcu1110 control) ([2]; [test solute]i = 45 mM (intracellular; 30 mM for some solutes due to solubility)): 139 ± 3.7 % PfCRTEcu1110 control
[3H]CQ transport, PfNT1 (% PfCRTDd2 control) ([3]; Experiment 1): 3.43 % PfCRTDd2 control
[3H]CQ transport, PfNT1 (% PfCRTDd2 control) ([3]; Experiment 2): 3.47 % PfCRTDd2 control
[3H]CQ transport, PfNT1 (% PfCRTDd2 control) ([3]; Experiment 3): 3.21 % PfCRTDd2 control
[3H]CQ transport, PfNT1 (% PfCRTDd2 control) ([3]; Experiment 4): 3.51 % PfCRTDd2 control
PfCRT-mediated [3H]CQ transport, trans-stimulation (% PfCRTDd2 control) ([4]; [test solute]i = 5 mM (intracellular), PfCRTDd2 oocytes, normalised to oocyte type control): 100 ± 2.9 % PfCRTDd2 control
PfCRT-mediated [3H]CQ transport, trans-stimulation (% PfCRTDd2 control) ([4]; [test solute]i = 45 mM (intracellular; 30 mM for some solutes due to solubility), PfCRTDd2 oocytes, normalised to oocyte type control): 110 ± 3.7 % PfCRTDd2 control
PfCRT-mediated [3H]CQ transport, cis-inhibition (% PfCRTEcu1110 control) ([5]; [test solute] = 0.5 mM): 58 ± 1.2 % PfCRTEcu1110 control
PfCRT-mediated [3H]CQ transport, cis-inhibition (% PfCRTEcu1110 control) ([5]; [test solute] = 1 mM): 42 ± 2.6 % PfCRTEcu1110 control
PfCRT-mediated [3H]CQ transport, cis-inhibition (% PfCRTEcu1110 control) ([5]; [test solute] = 2 mM): 28 ± 2.4 % PfCRTEcu1110 control
PfCRT-mediated [3H]CQ transport, cis-inhibition (% PfCRTDd2 control) ([6]; [test solute] = 0.5 mM): 47 ± 3.9 % PfCRTDd2 control
PfCRT-mediated [3H]CQ transport, cis-inhibition (% PfCRTDd2 control) ([6]; [test solute] = 1 mM): 31 ± 2.1 % PfCRTDd2 control
PfCRT-mediated [3H]CQ transport, cis-inhibition (% PfCRTDd2 control) ([6]; [test solute] = 2 mM): 12 ± 0.9 % PfCRTDd2 control

HVDDM [HM-5]
activity at 5000 µM ([1]; […], read-out: PfCRT-mediated [3H]CQ transport, trans-stimulation (% PfCRT3D7 control), [test solute]i = 5 mM (intracellular), PfCRT3D7 oocytes, normalised to oocyte type control): 130 ± 4.2%
activity at 45000 µM ([1]; […], read-out: PfCRT-mediated [3H]CQ transport, trans-stimulation (% PfCRT3D7 control), [test solute]i = 45 mM (intracellular; 30 mM for some solutes due to solubility), PfCRT3D7 oocytes, normalised to oocyte type control): 178 ± 5.2%
[3H]CQ transport, PfCRT3D7 (% PfCRT3D7 control) [1, 7]: 193.43 % PfCRT3D7 control
[3H]CQ transport, PfCRT3D7 (% PfCRT3D7 control) [1, 8]: 185.08 % PfCRT3D7 control
[3H]CQ transport, PfCRT3D7 (% PfCRT3D7 control) [1, 9]: 185.21 % PfCRT3D7 control
[3H]CQ transport, PfCRT3D7 (% PfCRT3D7 control) [1, 10]: 174.23 % PfCRT3D7 control
[3H]CQ transport (% PfCRT3D7 control), trans-stimulation, PfCRT3D7 ([1]; trans-stimulation, [test solute]i = 5 mM (injected), PfCRT-mediated component (background subtracted), sheet title says normalised to PfCRTDd2 control, mean ± SEM, SEM): 0.2 ± 0.01 % PfCRT3D7 control
activity at 5000 µM ([2]; […], pH 5.5, read-out: PfCRT-mediated [3H]CQ transport, trans-stimulation (% PfCRTEcu1110 control), [test solute]i = 5 mM (intracellular)): 122 ± 1.1%
[3H]CQ transport, PfNT1 (% PfCRTDd2 control) ([3]; Experiment 1): 3.35 % PfCRTDd2 control
[3H]CQ transport, PfNT1 (% PfCRTDd2 control) ([3]; Experiment 2): 3.11 % PfCRTDd2 control
[3H]CQ transport, PfNT1 (% PfCRTDd2 control) ([3]; Experiment 3): 3.44 % PfCRTDd2 control
[3H]CQ transport, PfNT1 (% PfCRTDd2 control) ([3]; Experiment 4): 3.27 % PfCRTDd2 control
activity at 5000 µM ([4]; […], pH 5.5, read-out: PfCRT-mediated [3H]CQ transport, trans-stimulation (% PfCRTDd2 control), [test solute]i = 5 mM (intracellular), PfCRTDd2 oocytes, normalised to oocyte type control): 100 ± 2.5%
activity at 5000 µM ([4]; […], pH 5.5, read-out: [3H]CQ transport (% PfCRTDd2 control), trans-stimulation, PfCRTDd2, trans-stimulation, [test solute]i = 5 mM (injected), PfCRT-mediated component (background subtracted), mean ± SEM, SEM): 100 ± 2.5%
activity at 45000 µM ([4]; […], pH 5.5, read-out: [3H]CQ transport (% PfCRTDd2 control), trans-stimulation, PfCRTDd2, trans-stimulation, [test solute]i = 45 mM (30 mM for some solutes due to solubility), PfCRT-mediated component (background subtracted), mean ± SEM, SEM): 113 ± 2.2%
inhibition at 1000 µM [5, 11]: 41 ± 3.5%
inhibition at 2000 µM [5, 11]: 32 ± 2.1%
inhibition at 500 µM [5, 12]: 14 ± 0.1%
inhibition at 2000 µM [5, 12]: 10 ± 0.5%
inhibition at 500 µM [6, 13]: 32 ± 0.8%
inhibition at 1000 µM [6, 13]: 19 ± 2%
inhibition at 2000 µM [6, 13]: 9 ± 0.1%
